Experiments:
HCT-15 = assay: MTT cytotoxicity, 2D culture, colon carcinoma; type: cell-based, human; conditions: HCT-15, 72 h, MTT test
Description: (§1) The Ag(I) complexes 3–5 and the corresponding uncoordinated ligands 1 and 2 were evaluated for their cytotoxic activity against various human cancer cell lines representative of different solid tumors. In particular, the in-house cancer cell panel contained examples of human colon (HCT-15), pancreatic (PSN-1), cervical (A431), breast (MDA-MB-231) and ovarian (2008) carcinoma as well as of SCLC (U1285). For comparison purposes, the cytotoxicity of the reference metal-based chemotherapeutic drug cisplatin was assessed under the same experimental conditions.
(§2) Ag(I) complexes and the corresponding uncoordinated ligands were dissolved in DMSO just before the experiment, and a calculated amount of drug solution was added to the cell growth medium to a final solvent concentration of 0.5%, which had no detectable effects on cell viability. Cisplatin was dissolved in 0.9% sodium chloride solution. MTT (3-(4,5-dimethylthiazol-2-yl)-2,5-diphenyltetrazolium bromide) and cisplatin were obtained from Sigma Chemical Co, St. Louis, MO, USA.
(§3) Human SCLC (U1285), breast (MDA-MB-231), colon (HCT-15), and pancreatic (PSN-1) carcinoma cell lines were obtained by American Type Culture Collection (ATCC, Rockville, MD, USA). A431 are human cervical carcinoma cells kindly provided by Professor F. Zunino (Division of Experimental Oncology B, Istituto Nazionale dei Tumori, Milan, Italy). The 2008 cells and the cisplatin-resistant variant, C13* cells, are human ovarian adenocarcinoma cell lines that were kindly provided by Professor G. Marverti (Department of Biomedical Science of Modena University, Modena, Italy). Cell lines were maintained in the logarithmic phase at 37 °C in a 5% carbon dioxide atmosphere using the following culture media containing 10% fetal calf serum (EuroClone, Milan, Italy), antibiotics (50 units/mL penicillin and 50 μg/mL streptomycin) and 2 mM l-glutamine: (i) RPMI-1640 medium (EuroClone, Milan, Italy) for HCT-15, A431, PSN-1, U1285, 2008 and C13* cells; (ii) DMEM (EuroClone, Milan, Italy) for MDA-MB-231 cells.
(§4) The growth inhibitory effect toward tumor cells was evaluated by means of MTT assay. Briefly, 3–8 × 10^3 cells/well, dependent upon the growth characteristics of the cell line, were seeded in 96-well microplates in growth medium (100 μL). After 24 h, the medium was removed and replaced with a fresh one containing the compound to be studied at the appropriate concentration. Triplicate cultures were established for each treatment. After 72 h, each well was treated with 10 μL of a 5 mg/mL MTT saline solution, and following 5 h of incubation, 100 μL of a sodium dodecyl sulfate (SDS) solution in HCl 0.01 M was added. After overnight incubation, cell growth inhibition was detected by measuring the absorbance of each well at 570 nm using a Bio-Rad 680 microplate reader. Mean absorbance for each drug dose was expressed as a percentage of the control untreated well absorbance and plotted vs. drug concentration. IC50 values, the drug concentrations that reduce the mean absorbance at 570 nm to 50% of those in the untreated control wells, were calculated by the four-parameter logistic (4-PL) model. Evaluation was based on means from at least four independent experiments.

PSN-1 = assay: MTT cytotoxicity, 2D culture, pancreatic carcinoma; type: cell-based; conditions: Homo sapiens, PSN1; PSN-1, 72 h, MTT test
Description: as §1, §2, §3
The growth inhibitory effect toward tumor cells was evaluated by means of MTT assay. Briefly, 3–8 × 10^3 cells/well, dependent upon the growth characteristics of the cell line, were seeded in 96-well microplates in growth medium (100 μL). After 24 h, the medium was removed and replaced with a fresh one containing the compound to be studied at the appropriate concentration. Triplicate cultures were established for each treatment. […] After overnight incubation, cell growth inhibition was detected by measuring the absorbance of each well at 570 nm using a Bio-Rad 680 microplate reader. Mean absorbance for each drug dose was expressed as a percentage of the control untreated well absorbance and plotted vs. drug concentration. […]

A431 = assay: MTT cytotoxicity, 2D culture, cervical carcinoma; type: cell-based, human; conditions: A431, 72 h, MTT test
Description: as §1, §2, §3, §4

U1285 = assay: MTT cytotoxicity, 2D culture, SCLC; type: cell-based, human; conditions: U1285, 72 h, MTT test
Description: as §1, §2, §3, §4

MDA-MB-231 = assay: MTT cytotoxicity, 2D culture, breast carcinoma; type: cell-based, human; conditions: MDA-MB-231, 72 h, MTT test
Description: as §1, §2, §3, §4

2008 = assay: MTT cytotoxicity, 2D culture, ovarian carcinoma; type: cell-based, human; conditions: 2008, 72 h, MTT test
Description: as §1, §2, §3, §4

C13* cells = assay: MTT cytotoxicity, cisplatin-resistant ovarian adenocarcinoma; type: cell-based, human; conditions: 72 h, MTT test
Text: The antiproliferative activity of the Ag(I) complexes 3–5 was also investigated in an additional cell line selected for its resistance to cisplatin, the human ovarian adenocarcinoma C13* cells. These cells were suitably selected after a cisplatin chronic treatment and are characterized by several mechanisms accounting for their resistance to cisplatin; these include (i) a reduced intracellular drug accumulation, (ii) high cellular levels of glutathione and metallothioneins, (iii) the enhanced repair of platinum-DNA adducts, and (iv) an overexpression of the Trx system.
Cytotoxicity was assessed after 72 h of drug treatment by MTT test, and the IC50 and RF values (RF = resistance factor, defined as the ratio of the IC50 of resistant cells over the IC50 of sensitive ones) are reported in Table 1.
as §3, §4

HEK293 cells = assay: MTT cytotoxicity, non-cancerous cells; type: cell-based; conditions: Homo sapiens, 72 h, MTT test
Description: One of the main drawbacks of chemotherapeutic drugs is the possible toxic effect toward non-cancerous cells, and we measured the cytotoxicity of Ag(I) complexes against non-cancerous HEK293 cells (see Table 1). For all Ag(I) complexes, calculated IC50 values were higher than those obtained on average against tumor cells, thus indicating for this class of metal complexes a slightly preferential cytotoxicity against human cancer cells.
as §4

[1] = system: U1285 cancer cell spheroids; assay: 3D spheroid cytotoxicity, acid phosphatase (APH) assay; type: cell-based, human; conditions: 72 h
Description: The in vitro antitumor activity of the newly developed Ag(I) derivatives was also assayed in 3D cell culture models of SCLC cells. Even if the 2D cell cultures are the most employed assays for in vitro screening due to the low cost, simplicity and reliability, two-dimensional methods are unable to reproduce the properties of in vivo solid tumors. In contrast, 3D cell cultures are much more efficient in closely mimicking the heterogeneity and complexity of the tumor mass and therefore are more predictive for in vivo results than conventional 2D cell cultures. On these bases, we tested the activity of the Ag(I) complexes on spheroids obtained from U1285 cells, which were proven to be highly sensitive to their in vitro antitumor activity. SCLC spheroids were treated with the investigated compounds for 72 h, and cell viability was assessed by means of the acid phosphatase (APH) assay.
Spheroids from U1285 cells (3 × 10^3 cells/well) were treated for 72 h with increasing concentrations of tested compounds. The growth inhibitory effect was evaluated by means of the APH assay. IC50 values were calculated from the dose–survival curves by the four-parameter logistic model (p < 0.05). S.D. = standard deviation.
Spheroid cultures were obtained by seeding 2.5 × 10^3 U1285 cancer cells/well in a round-bottom non-treated tissue culture 96-well plate (Greiner Bio-one, Kremsmünster, Austria) in phenol red free RPMI-1640 medium (Sigma Chemical Co., St. Louis, MO, USA) containing 10% fetal calf serum and supplemented with 20% methyl cellulose stock solution.
An APH modified assay was used for determining cell viability in 3D spheroids, as previously described. […] The inhibition of the cell growth induced by the tested complexes was detected by measuring the absorbance of each well at 405 nm, using a Bio-Rad 680 microplate reader. Mean absorbance for each drug dose was expressed as a percentage of the control untreated well absorbance (T/C) and plotted vs. drug concentration. […]

TrxR = biological target: T1, TrxR (Homo sapiens, UniProt Q16881); assay: TrxR activity in treated U1285 cells; type: cell-based; conditions: 2 µM, 24 h
T1 construct: hampering TrxR activity when tested in U1285 cell cultures; endogenous in cells; host or cells: U1285 human small-cell lung carcinoma cells
T1 sequence (Q16881 151-649 limits assumed): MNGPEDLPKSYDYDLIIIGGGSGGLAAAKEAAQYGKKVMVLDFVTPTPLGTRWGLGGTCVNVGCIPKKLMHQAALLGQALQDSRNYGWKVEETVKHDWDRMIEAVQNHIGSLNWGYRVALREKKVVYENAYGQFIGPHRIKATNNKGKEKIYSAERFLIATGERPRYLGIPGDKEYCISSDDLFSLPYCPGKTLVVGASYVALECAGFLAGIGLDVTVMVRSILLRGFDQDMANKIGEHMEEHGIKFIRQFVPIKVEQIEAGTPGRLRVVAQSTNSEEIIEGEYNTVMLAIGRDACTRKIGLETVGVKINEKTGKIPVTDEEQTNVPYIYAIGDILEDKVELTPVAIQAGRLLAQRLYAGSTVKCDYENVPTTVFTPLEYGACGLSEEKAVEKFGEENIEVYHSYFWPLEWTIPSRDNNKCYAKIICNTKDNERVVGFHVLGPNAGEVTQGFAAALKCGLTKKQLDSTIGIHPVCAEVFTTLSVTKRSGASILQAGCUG
Description: On the other hand, Ag(I) compounds 4 and 5 were as effective or even better than auranofin in hampering TrxR activity when tested in U1285 cell cultures.
At the end of incubation time, cells were collected, washed with ice-cold PBS and centrifuged at […]. Each sample was then lysed with RIPA buffer modified as follows: 150 mM NaCl, 50 mM Tris–HCl, 1% Triton X-100, 1% SDS, 1% DOC, 1 mM NaF, 1 mM EDTA, and immediately before use, an anti-protease cocktail (Roche, Basel, Switzerland) containing PMSF was added. Samples were tested for TrxR activity as above described.
Figure 2 TrxR inhibition. (A) TrxR1 activity was assayed by measuring NADPH-dependent reduction of DTNB at 412 nm as described in the Experimental Section. (a) 50% inhibition concentration (IC50), Error bars indicate S.D. (B) U1285 cells were incubated for 24 h with the tested compounds (2 µM). Subsequently, cells were washed twice with PBS and lysed. TrxR activity was tested by measuring NADPH-dependent reduction of DTNB at 412 nm. Error bars indicate SD. * p < 0.05; ** p < 0.01.

| Compound | IC50 (HCT-15; Homo sapiens) | IC50 (PSN-1) | IC50 (A431; Homo sapiens, A-431) | IC50 (U1285; Homo sapiens) | IC50 (MDA-MB-231; Homo sapiens) | IC50 (2008; Homo sapiens) | IC50 (C13* cells; Homo sapiens) | IC50 (HEK293 cells) | IC50 ([1]; Homo sapiens) | decrease of TrxR enzyme activity (TrxR) | IC50 (HCT-15) | IC50 (A431) | IC50 (U1285) | IC50 (MDA-MB-231) | IC50 2008 | IC50 (C13* cells) | IC50 [1] |
| --- | --- | --- | --- | --- | --- | --- | --- | --- | --- | --- | --- | --- | --- | --- | --- | --- | --- |
| COC(=O)C(n1nc(C)cc1C)n1nc(C)cc1C [ligand 2, [HC(pz^Me2)2COOCH3]] | > 50 µM | > 50 µM | > 50 µM | > 50 µM | > 50 µM | > 50 µM | > 50 µM | > 50 µM | > 100 µM | – | – | – | – | – | – | – | – |
| CC(=O)OC[C@H]1O[C@@H]([S-])[C@H](OC(C)=O)[C@@H](OC(C)=O)[C@@H]1OC(C)=O.CCP(CC)CC.[Au+] [auranofin, reference compound] | – | – | – | – | – | – | – | – | – | 62% | – | – | – | – | – | – | – |
| C1N2CN3CN1CP(C2)C3 [PTA, 1,3,5-triaza-7-phosphaadamantane, reference compound] | > 100 µM | > 100 µM | > 100 µM | > 100 µM | > 100 µM | > 100 µM | > 100 µM | > 100 µM | – | – | – | – | – | – | – | – | – |
| COC(=O)C(n1cccn1)n1cccn1 [ligand 1, [HC(pz)2COOCH3]] | > 50 µM | > 50 µM | > 50 µM | > 50 µM | > 50 µM | > 50 µM | > 50 µM | > 50 µM | > 100 µM | – | – | – | – | – | – | – | – |
| c1ccc(P(c2ccccc2)c2ccccc2)cc1 [PPh3, triphenylphosphine, reference compound] | > 50 µM | > 50 µM | 47.5 ± 1.1 µM | > 50 µM | > 50 µM | > 50 µM | > 50 µM | > 100 µM | – | – | – | – | – | – | – | – | – |
| N.N.[Cl][Pt][Cl] [cisplatin, reference compound] | – | – | – | – | – | – | – | – | – | – | 15.3 ± 2.6 µM | 2.1 ± 0.9 µM | 9.6 ± 1.2 µM | 30.5 ± 2.6 µM | 2.2 ± 1 µM | 30.5 ± 2.6 µM | 65.4 ± 1.4 µM |
